From patent publication US20260232827A1, “ANTIBODY-DRUG CONJUGATES TARGETING NAPI2B AND METHODS OF USE” (Zymeworks BC Inc., priority 2023, published 2026) come the findings set out here.

Test [1] concerns the target T1, human NaPi2b (Homo sapiens, UniProt O95436).
T1 construct: Full length human NaPi2b; host or cells: HEK293-6e
T1 sequence (O95436 1-690): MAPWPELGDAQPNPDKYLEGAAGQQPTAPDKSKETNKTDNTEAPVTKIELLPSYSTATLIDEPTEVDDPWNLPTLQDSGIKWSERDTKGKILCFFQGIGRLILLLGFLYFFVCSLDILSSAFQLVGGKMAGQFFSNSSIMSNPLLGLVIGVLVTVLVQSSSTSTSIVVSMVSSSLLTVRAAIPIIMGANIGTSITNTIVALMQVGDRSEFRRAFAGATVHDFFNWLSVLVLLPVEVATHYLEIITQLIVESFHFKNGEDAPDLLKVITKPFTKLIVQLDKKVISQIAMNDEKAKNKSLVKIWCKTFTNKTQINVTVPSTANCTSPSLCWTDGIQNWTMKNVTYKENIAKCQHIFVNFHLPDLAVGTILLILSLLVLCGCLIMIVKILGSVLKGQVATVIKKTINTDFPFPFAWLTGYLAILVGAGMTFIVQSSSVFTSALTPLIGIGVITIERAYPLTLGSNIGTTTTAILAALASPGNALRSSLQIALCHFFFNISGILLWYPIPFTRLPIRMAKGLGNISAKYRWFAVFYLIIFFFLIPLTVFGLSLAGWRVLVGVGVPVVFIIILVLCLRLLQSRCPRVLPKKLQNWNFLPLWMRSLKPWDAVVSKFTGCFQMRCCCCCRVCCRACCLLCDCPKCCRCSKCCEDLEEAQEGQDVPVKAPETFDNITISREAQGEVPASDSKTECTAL
Nature of the test: Flow cytometry binding to transfected HEK293-6e cells. To be noted: huNaPi2b (full length human NaPi2b), 24 hours at 4° C. On the procedure: The binding cross-reactivity of humanized antibody variant v29456 to human, cynomolgus and mouse NaPi2b was assessed by flow cytometry using HEK293-6e transfected cells.
Following staining and washing, fluorescence was detected by flow cytometry on BD LSRFortessa™ Cell Analyzer (BD Biosciences, Franklin Lake, NJ) with 10,000 minimum events collected per well. The AF647/APC-A GeoMean (fluorescence signal geometric mean, proportional to anti-Human AF647 binding) was calculated for the live singlet cell population for each primary antibody using FlowJo™ v8 software (BD Biosciences, Franklin Lake, NJ). The Bmax and Kd of each primary antibody were calculated using GraphPad Prism Version 9 (GraphPad Software, San Diego, CA)
(§1) Following incubation and washing, fluorescence was detected by flow cytometry on a BD LSRFortessa™ Cell Analyzer (BD Biosciences, Franklin Lake, NJ) with 1,000 minimum events collected per well.
as §1, §1

Test [2] has as its system Construct 2 (chimeric human NaPi2b, region 280-301). Kind of test: Binding region mapping, flow cytometry on transfected HEK293-6e cells. To be noted: 24 hours at 4° C. An excerpt: (§2) NaPi2b constructs containing deletions in the main extracellular loop of human NaPi2b, as well as chimeric NaPi2b/NaPi2c constructs concerning this main loop, were generated.
(§3) As a complementary strategy, two additional constructs were designed in which the relevant region of the main loop was deleted such as to mimic NaPi2c/NaPi2a main extracellular loop (Constructs 6-7 in Table 52.1). Clones were generated at GenScript Biotech (Piscataway, NJ).
(§4) Constructs were expressed in HEK293-6e cells as follows. Cells were maintained under standard culture conditions (37° C./5% CO2) with shaking at 110 rpm for suspension and cultured in FreeStyle™ 293 Expression Medium (Thermo Fisher Scientific, Waltham, MA) supplemented with 1% fetal bovine serum (Thermo Fisher Scientific, Waltham, MA) and 1× Penicillin-Streptomycin (Thermo Fisher Scientific, Waltham, MA). Cells were transfected with clones expressing the constructs listed in Table 52.1, at 1 μg of DNA per 1 million cells, using 293Fectin™ Transfection Reagent (Thermo Fisher Scientific, Waltham, MA) and Opti-MEM™ I Reduced Serum Medium (Thermo Fisher Scientific, Waltham, MA), and incubated for 24 hours under standard culture conditions (37° C./5% CO2/110 rpm). Following transfection, cells were seeded at 50,000 cells/well in conical-bottom 96-well plates and treated with a serial dilution of test antibody for 24 hours at 4° C. to prevent internalization. Cells were treated with final concentrations of all humanized antibodies of 200, 20, or 2 nM. Cells were treated with final concentrations of the reference anti-NaPi2a rabbit antibody of 50, 5, or 0.5 nM. […] Following incubation and washing, fluorescence was detected by flow cytometry on a BD LSRFortessa™ Cell Analyzer (BD Biosciences, Franklin Lake, NJ) with 1,000 minimum events collected per well. […] Background-subtracted AF647 Mean Fluorescence Intensity (MFI) values were calculated by subtracting the average MFI of three technical replicates of unstained (no primary antibody) cells.

Test [3] concerns Construct 4 (chimeric human NaPi2b, region 341-358). Described as above. The note with it: 24 hours at 4° C.
From the text: as §2, §3, §4

Test [4] has as its target T2, Construct 7 (human NaPi2b deletion, region 317-326) (Homo sapiens, UniProt O95436, DEL317-326).
T2 construct: host or cells: HEK293-6e
T2 sequence (O95436 with tags, fused parts or gaps DEL317-326): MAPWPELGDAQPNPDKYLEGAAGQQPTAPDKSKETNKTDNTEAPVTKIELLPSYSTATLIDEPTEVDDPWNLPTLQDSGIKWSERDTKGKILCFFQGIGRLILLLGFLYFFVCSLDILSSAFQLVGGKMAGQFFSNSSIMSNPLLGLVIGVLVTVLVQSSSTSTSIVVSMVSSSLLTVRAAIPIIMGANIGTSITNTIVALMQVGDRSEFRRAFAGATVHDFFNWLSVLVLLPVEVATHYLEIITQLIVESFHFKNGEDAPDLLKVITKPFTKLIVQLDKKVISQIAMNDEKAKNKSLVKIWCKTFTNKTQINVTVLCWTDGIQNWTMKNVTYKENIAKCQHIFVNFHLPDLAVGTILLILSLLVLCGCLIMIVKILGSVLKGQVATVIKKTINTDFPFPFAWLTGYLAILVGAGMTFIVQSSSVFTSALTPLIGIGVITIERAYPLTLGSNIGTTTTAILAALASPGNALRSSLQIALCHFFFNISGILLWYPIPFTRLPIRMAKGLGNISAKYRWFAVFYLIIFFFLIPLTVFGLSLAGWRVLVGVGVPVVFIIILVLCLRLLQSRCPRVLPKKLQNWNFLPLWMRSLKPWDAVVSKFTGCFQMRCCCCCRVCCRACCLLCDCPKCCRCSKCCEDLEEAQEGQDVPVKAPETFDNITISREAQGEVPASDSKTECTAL
The description is as above. The note with it: 24 hours at 4° C.
From the text: as §2, §3, §4

Test [5] relates to Construct 5 (chimeric human NaPi2b, region 304-348). Described as above. To be noted: 24 hours at 4° C. The protocol:
as §1

As to palivizumab [palivizumab (v21995)], the “Background-Subtracted AF647 Mean Fluorescence Intensity” value in test [1] (antibody 2.0 nM) is recorded as -22; in test [1] (antibody 20.0 nM), 13; in test [1] (antibody 200.0 nM) it was 19; in test [2] (antibody 2.0 nM), -69; in test [2] (antibody 20.0 nM), -64; in test [2] (antibody 200.0 nM), -30. The “Background-Subtracted AF647 Mean Fluorescence Intensity” value in test [3] (antibody 2.0 nM) was 1; in test [3] (antibody 20.0 nM), 22; in test [3] (antibody 200.0 nM), 12; in test [4] (antibody 2.0 nM), -34; in test [4] (antibody 20.0 nM) it was -85; in test [4] (antibody 200.0 nM), -97. Moreover, the “Background-Subtracted AF647 Mean Fluorescence Intensity” value in test [5] (antibody 2.0 nM) is given as -2; in test [5] (antibody 20.0 nM) it was 123; in test [5] (antibody 200.0 nM), 40.
